Data as given in publication PMC3514653 (Neuromodulation : journal of the International …, 2012).
Like-named read-outs stand apart in the source and are kept apart here. Marks after values point to notes of the source that are not given here.

What was measured:
[1] = system: Male beagle dogs; conditions: dog, in vivo
[2] = in vivo; cited from earlier work
[3] = in vivo; conditions: male, beagle, dog, 10 ug
[4] = dog, in vivo
[5] = system: Male beagle dogs; conditions: dog, in vivo; remark: listed apart in the source
[6] = in vivo; conditions: beagle, dog
[7] = dog, in vivo; remark: listed apart in the source
[8] = system: Male beagle dogs; conditions: dog, in vivo; remark: listed apart in the source
[9] = in vivo; conditions: male, beagle, dog, iv, 0.1 mg/kg
[10] = system: Male beagle dogs; conditions: dog, in vivo, iv, 0.1 mg/kg
[11] = dog, in vivo; remark: listed apart in the source
[12] = in vivo; cited from earlier work; remark: listed apart in the source

Compound: CSCC[C@@H]1NC(=O)[C@H](CC(C)C)NC(=O)[C@H](CCCNC(=N)N)NC(=O)[C@H](CO)NC(=O)[C@@H]2CSSC[C@@H]3NC(=O)[C@H](CO)NC(=O)CNC(=O)[C@H]([C@@H](C)O)NC(=O)[C@H](CSSC[C@H](N)C(=O)N[C@@H](CCCCN)C(=O)NCC(=O)N[C@@H](CCCCN)C(=O)NCC(=O)N[C@@H](C)C(=O)N[C@@H](CCCCN)C(=O)N2)NC(=O)[C@H](CSSC[C@@H](C(N)=O)NC(=O)[C@H](CCCCN)NC(=O)CNC(=O)[C@H](CO)NC(=O)[C@H](CCCNC(=N)N)NC3=O)NC(=O)[C@H](CC(=O)O)NC(=O)[C@H](Cc2ccc(O)cc2)NC1=O [Ziconotide]
- Arousal, muscle tone, and coordination [1]: not affected
- Diarrhea, dogs affected [1]: 3 of the 5
- Severity of whole body trembling and ataxia [1]: tendency for this to increase in severity
- Whole body trembling, dogs affected [1]: 3 of the 5
- Persistence of observed effects ([1]; iv, 0.1 mg/kg): absent 24 hr post injection
- Scleral vasodilation and facial erythema, dogs affected ([1]; iv, 0.1 mg/kg): 2 of the 5
- Vomiting, dogs affected ([1]; iv, 0.1 mg/kg): 4 of the 5
- Diffusion of the peptide in rat brain parenchyma [2]: less than 1 mm
- CL/F [3]: 196 mL/min
- Vd/F [3]: 17.2 L
- AUC(0-inf) ([3]; AUC∞): 0.85 ng·h/mL
- bioavailability ([3]; iv): 53.5%
- LCSF: cisternal ratio at steady state [4]: ~1: 0.02
- Plasma concentration relative to that in the cisterna [4]: approximately 0.1 times
- Ratio of LCSF concentrations at infusion doses 1 and 5 µg/hr [4]: approximately 1: 4
- Terminal elimination T1/2 after termination of continuous infusion [4]: 2.47 h
- Time to peak plasma level [4]: ≤ 8 h
- Plasma concentration at steady state, 8–48 hr group mean ([4]; male, beagle, 5 ug/hr): 1.12 ng/mL
- Body temperature versus baseline [5]: not different from pretreatment baseline measurements
- Time for elevated temperatures to return to baseline [5]: 24 to 72 h
- Body temperature versus baseline ([5]; iv): not different from pretreatment baseline measurements
- CL/F ([6]; CL/F (infusion rate divided by steady-state concentration)): 134 mL/min
- level at 48 h ([6]; male, 5 ug/hr): 13.5 ng/mL
- Elimination T1/2 in CSF following IV injection [7]: 1.64 h
- Elimination T1/2 in plasma following IV injection [7]: 45 min
- Elimination half life after bolus IV delivery [7]: 1.6 h
- FCSF (absolute bioavailability in CSF after bolus IV) [7]: 0.013%
- Blood pressure and heart rate effect [8]: modest decline in mean, diastolic, and systolic pressures and a mild tachycardia
- Effect upon blood pressure [8]: no effect upon blood pressure
- Effect upon mean, diastolic, and systolic blood pressures [8]: prominent reduction that persisted for the remainder of the infusion
- Duration of fall in blood pressures ([8]; iv, 0.1 mg/kg): > 8 h
- Effect upon heart rate ([8]; iv, 0.1 mg/kg): corresponding tachycardia
- Fall in mean, diastolic, and systolic pressures ([8]; iv, 0.1 mg/kg): approximately 40 mmHg
- Cmax [9]: ~900 ng/mL
- Respiratory rates [10]: moderate decrease in respiratory rates for approximately 3 hr post injection
- CSF : plasma ratio [11]: approximately 20,000: 1
- Time of peak concentration in LCSF [11]: ≤ 3 min
- Vz/F [11]: 12932 – 33328^b mL
- Median LCSF half-life [12]: 4.5 h
- Volume of distribution [12]: 99 mL
